# In ChEMBL document CHEMBL1201862, “PubChem BioAssay data set” (2004):
# Values joined by “and” are separate entries in the source; they are usually repeats but may differ in a detail not shown here. Equal values may be shown once.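 Protocol summary: plate cells (96-well), add compound at 5 concentrations, incubate 48 h, interpolate endpoints linearly. GI50 marks 50% less growth.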 Active and inactive are the calls of the source. Rule as the data show it: active = GI50 up to about 1.1 µM and inactive = higher.
# Tests used:
# Experiment in all cases: inhibition of tumour cell growth, NCI panel, 48 h
# [1] = tested on: HT-29
# [2] = tested on: OVCAR-4
# [3] = tested on: XF498
# [4] = tested on: A498
# [5] = tested on: CAKI-1
# [6] = tested on: OVCAR-3
# [7] = tested on: SW-620
# [8] = tested on: MOLT-4
# [9] = tested on: SK-MEL-28
# [10] = tested on: RPMI-8226
# [11] = tested on: HCT-116
# [12] = tested on: NCI-H226
# [13] = tested on: NCI-H460
# [14] = tested on: DMS-273
# [15] = tested on: UACC-257
# [16] = tested on: NCI-H522
# [17] = tested on: HCC 2998
# [18] = tested on: SF-295
# [19] = tested on: RXF 393
# [20] = tested on: ACHN
# [21] = tested on: OVCAR-5
# [22] = tested on: HL-60
# [23] = tested on: SK-MEL-2
# [24] = tested on: LXFL 529
# [25] = tested on: TK-10
# [26] = tested on: DMS-114
# [27] = tested on: IGROV-1
# [28] = tested on: SK-OV-3
# [29] = tested on: M19-MEL
# [30] = tested on: SNB-78
# [31] = tested on: EKVX
# [32] = tested on: Malme-3M
# [33] = tested on: NCI-H23
# [34] = tested on: SNB-19
# [35] = tested on: UACC-62
# [36] = tested on: SK-MEL-5
# [37] = tested on: Hs-578T
# [38] = tested on: SN12C
# [39] = tested on: M14
# [40] = tested on: U-251
# [41] = tested on: LOX IMVI
# [42] = tested on: CCRF-CEM
# [43] = tested on: T47D
# [44] = tested on: HOP-62
# [45] = tested on: SNB-75
# [46] = tested on: BT-549
# [47] = tested on: COLO 205
# [48] = tested on: 786-0
# [49] = tested on: SF-268
# [50] = tested on: SR
# [51] = tested on: K562
# [52] = tested on: UO-31
# [53] = tested on: A549
# [54] = tested on: MDA-N
# [55] = tested on: HCT-15
# [56] = tested on: HOP-92
# [57] = tested on: SF-539
# [58] = tested on: MCF7
# [59] = tested on: KM12
# [60] = tested on: PC-3
# [61] = tested on: OVCAR-8
# [62] = tested on: NCI/ADR-RES
# [63] = tested on: MDA-MB-231
# [64] = tested on: MDA-MB-435
# [65] = tested on: DU-145
smiles,measurement,setting,value
CC(=O)OCC1OC(n2c(-c3ccccc3)cc(-c3ccco3)c(C#N)c2=O)C(OC(C)=O)C(OC(C)=O)C1OC(C)=O (centres undefined),GI50,[1],> 100 µM (inactive)
same,GI50,[2],> 56.6 µM (inactive) and 74.3 µM (inactive)
same,GI50,[3],16.2 µM (inactive)
same,GI50,[4],> 100 µM (inactive) and 68.1 µM (inactive)
same,GI50,[5],52.5 µM (inactive)
same,GI50,[6],33.3 µM (inactive) and > 31.6 µM (inactive)
same,GI50,[7],> 31.6 µM (inactive) and 49.3 µM (inactive)
same,GI50,[8],> 22.8 µM (inactive) and 14.8 µM (inactive)
same,GI50,[9],22.3 µM (inactive) and 39.3 µM (inactive)
same,GI50,[10],8.38 µM (inactive)
same,GI50,[11],7.46 µM (inactive) and 5.86 µM (inactive)
same,GI50,[12],> 100 µM (inactive)
same,GI50,[13],57.4 µM (inactive)
same,GI50,[14],25.8 µM (inactive) and 36.3 µM (inactive)
same,GI50,[15],> 89.1 µM (inactive) and 75.7 µM (inactive)
same,GI50,[16],29.5 µM (inactive) and 20.7 µM (inactive)
same,GI50,[17],> 100 µM (inactive) and 52.4 µM (inactive)
same,GI50,[18],39.9 µM (inactive) and 57.5 µM (inactive)
same,GI50,[19],> 32.1 µM (inactive) and 19.3 µM (inactive)
same,GI50,[20],76.7 µM (inactive) and 49.7 µM (inactive)
same,GI50,[21],> 100 µM (inactive)
same,GI50,[22],3.84 µM (inactive)
same,GI50,[23],14.6 µM (inactive) and 28.1 µM (inactive)
same,GI50,[24],12.7 µM (inactive) and > 10 µM (inactive)
same,GI50,[25],> 31.6 µM (inactive) and 27.2 µM (inactive)
same,GI50,[26],28.8 µM (inactive) and 30.5 µM (inactive)
same,GI50,[27],> 31.6 µM (inactive) and 36.8 µM (inactive)
same,GI50,[28],> 100 µM (inactive) and 98.6 µM (inactive)
same,GI50,[29],54.6 µM (inactive) and 30.9 µM (inactive)
same,GI50,[30],45.7 µM (inactive) and 25.9 µM (inactive)
same,GI50,[31],> 100 µM (inactive)
CN(C)CC1CCC/C(=C\c2ccc(OC(=O)/C=C/c3ccc(Cl)c(Cl)c3)cc2)C1=O (centres undefined),GI50,[32],5.4 µM (inactive)
same,GI50,[33],3.77 µM (inactive)
same,GI50,[1],2.11 µM (inactive)
same,GI50,[34],10.5 µM (inactive)
same,GI50,[35],12.3 µM (inactive)
same,GI50,[36],4.09 µM (inactive)
same,GI50,[2],22.9 µM (inactive)
same,GI50,[4],7.89 µM (inactive)
same,GI50,[37],4.21 µM (inactive)
same,GI50,[38],2.39 µM (inactive)
same,GI50,[5],2.26 µM (inactive)
same,GI50,[6],3.48 µM (inactive)
same,GI50,[7],2.75 µM (inactive)
same,GI50,[39],5.68 µM (inactive)
same,GI50,[40],6.17 µM (inactive)
same,GI50,[41],1.86 µM (inactive)
same,GI50,[8],1.66 µM (inactive)
same,GI50,[42],0.597 µM (active)
same,GI50,[9],7.8 µM (inactive)
same,GI50,[10],0.164 µM (active)
same,GI50,[11],3.49 µM (inactive)
same,GI50,[12],1.71 µM (inactive)
same,GI50,[43],2.44 µM (inactive)
same,GI50,[44],2.75 µM (inactive)
same,GI50,[45],18.4 µM (inactive)
same,GI50,[46],3.42 µM (inactive)
same,GI50,[47],1.83 µM (inactive)
same,GI50,[13],3.86 µM (inactive)
same,GI50,[15],9.91 µM (inactive)
same,GI50,[16],3.37 µM (inactive)
same,GI50,[48],1.83 µM (inactive)
same,GI50,[49],9.29 µM (inactive)
same,GI50,[17],2.92 µM (inactive)
same,GI50,[50],1.21 µM (inactive)
same,GI50,[18],7.11 µM (inactive)
same,GI50,[51],1.94 µM (inactive)
same,GI50,[19],1.88 µM (inactive)
same,GI50,[52],2.77 µM (inactive)
same,GI50,[20],1.82 µM (inactive)
same,GI50,[53],5.86 µM (inactive)
same,GI50,[54],3.37 µM (inactive)
same,GI50,[21],20.5 µM (inactive)
same,GI50,[55],2.45 µM
same,GI50,[56],1.79 µM (inactive)
same,GI50,[22],0.796 µM (active)
same,GI50,[23],15.9 µM (inactive)
same,GI50,[25],1.76 µM (inactive)
same,GI50,[57],2.59 µM (inactive)
same,GI50,[27],1.47 µM (inactive)
same,GI50,[28],37.3 µM (inactive)
same,GI50,[58],0.857 µM (active)
same,GI50,[59],1.61 µM (inactive)
same,GI50,[60],3.33 µM (inactive)
same,GI50,[61],3.92 µM (inactive)
same,GI50,[62],2.92 µM (inactive)
same,GI50,[63],3.71 µM (inactive)
same,GI50,[64],6.89 µM (inactive)
same,GI50,[65],8.97 µM (inactive)
same,GI50,[31],5.9 µM (inactive)
Cc1ccc(C(=O)/C=C2/Nc3ccc([N+](=O)[O-])cc3N/C2=C/C(=O)c2ccc(C)cc2)cc1,GI50,[32],> 100 µM (inactive)
same,GI50,[33],37.7 µM (inactive)
same,GI50,[1],> 100 µM (inactive)
same,GI50,[34],43.8 µM (inactive)
same,GI50,[35],24.7 µM (inactive)
same,GI50,[36],> 100 µM (inactive)
same,GI50,[2],61.4 µM (inactive)
same,GI50,[4],44.7 µM (inactive)
same,GI50,[37],23.2 µM (inactive)
same,GI50,[38],> 100 µM (inactive)
same,GI50,[5],87.5 µM (inactive)
same,GI50,[6],> 100 µM (inactive)
same,GI50,[7],> 100 µM (inactive)
same,GI50,[39],> 100 µM (inactive)
same,GI50,[40],27.7 µM (inactive)
same,GI50,[41],> 100 µM (inactive)
same,GI50,[8],> 100 µM (inactive)
same,GI50,[42],88.3 µM (inactive)
same,GI50,[9],> 100 µM (inactive)
same,GI50,[10],> 100 µM (inactive)
same,GI50,[11],> 100 µM (inactive)
same,GI50,[12],> 100 µM (inactive)
same,GI50,[43],> 100 µM (inactive)
same,GI50,[44],15.3 µM (inactive)
same,GI50,[45],10.6 µM (inactive)
same,GI50,[46],> 100 µM (inactive)
same,GI50,[47],> 100 µM (inactive)
same,GI50,[13],> 100 µM (inactive)
same,GI50,[15],> 100 µM (inactive)
same,GI50,[16],47.1 µM (inactive)
same,GI50,[48],60.7 µM (inactive)
same,GI50,[49],52.4 µM (inactive)
same,GI50,[17],> 100 µM (inactive)
same,GI50,[50],54.2 µM (inactive)
same,GI50,[18],41.3 µM (inactive)
same,GI50,[51],85.5 µM (inactive)
same,GI50,[19],36.6 µM (inactive)
same,GI50,[52],> 100 µM (inactive)
same,GI50,[20],37.5 µM (inactive)
same,GI50,[53],> 100 µM (inactive)
same,GI50,[54],> 100 µM (inactive)
same,GI50,[21],> 100 µM (inactive)
same,GI50,[55],90.8 µM
same,GI50,[56],61.4 µM (inactive)
same,GI50,[22],34.7 µM (inactive)
same,GI50,[23],66.5 µM (inactive)
same,GI50,[25],> 100 µM (inactive)
same,GI50,[57],52.8 µM (inactive)
same,GI50,[27],42.5 µM (inactive)
same,GI50,[28],41.1 µM (inactive)
same,GI50,[58],84.1 µM (inactive)
same,GI50,[59],> 100 µM (inactive)
same,GI50,[60],92.3 µM (inactive)
same,GI50,[61],36 µM (inactive)
same,GI50,[62],47.6 µM (inactive)
same,GI50,[63],29.1 µM (inactive)
same,GI50,[64],> 100 µM (inactive)
same,GI50,[65],> 100 µM (inactive)
same,GI50,[31],61.4 µM (inactive)
